Experiments:
Histamine H3 receptor [1] = biological target: T1, Histamine H3 receptor (Homo sapiens, UniProt Q9Y5N1); experiment: Displacement of [3H]NAMH from human full length histamine H3 receptor expressed in rat C6 cells; assay type: cell-based
Histamine H3 receptor [2] = biological target: T2, Histamine H3 receptor (Rattus norvegicus, UniProt Q9QYN8); experiment: Displacement of [3H]NAMH from histamine H3 receptor in rat cortex; settings: read-out: Ki
Histamine H3 receptor [3] = biological target: T2, Histamine H3 receptor; experiment: Displacement of [3H]NAMH from rat full length histamine H3 receptor expressed in rat C6 cells; assay type: cell-based; settings: read-out: Ki
[4] = biological target: Histamine H3 receptor (Cavia porcellus) (UniProt Q9JI35); settings: Ileum
Sequence of Histamine H3 receptor (Cavia porcellus) (Q9JI35 whole entry): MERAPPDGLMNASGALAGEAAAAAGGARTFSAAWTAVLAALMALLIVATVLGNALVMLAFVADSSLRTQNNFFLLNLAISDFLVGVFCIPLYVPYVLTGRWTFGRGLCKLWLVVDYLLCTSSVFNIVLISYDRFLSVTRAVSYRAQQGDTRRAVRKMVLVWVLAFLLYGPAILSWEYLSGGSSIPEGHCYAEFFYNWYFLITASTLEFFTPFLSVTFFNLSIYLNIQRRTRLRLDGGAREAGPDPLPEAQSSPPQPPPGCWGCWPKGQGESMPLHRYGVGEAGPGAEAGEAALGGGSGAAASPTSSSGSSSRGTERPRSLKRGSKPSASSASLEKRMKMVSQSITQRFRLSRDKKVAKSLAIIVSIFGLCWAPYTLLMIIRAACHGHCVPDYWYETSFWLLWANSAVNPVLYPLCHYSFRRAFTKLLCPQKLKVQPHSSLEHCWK

[5] = biological target: Histamine H3 receptor (Rattus norvegicus) (UniProt Q9QYN8); experiment: Antagonist activity at rat full length histamine H3 receptor expressed in rat C6 cells assessed as inhibition of [35S]gammaGTP binding relative to control; assay type: cell-based
Sequence of Histamine H3 receptor (Rattus norvegicus) (Q9QYN8 whole entry): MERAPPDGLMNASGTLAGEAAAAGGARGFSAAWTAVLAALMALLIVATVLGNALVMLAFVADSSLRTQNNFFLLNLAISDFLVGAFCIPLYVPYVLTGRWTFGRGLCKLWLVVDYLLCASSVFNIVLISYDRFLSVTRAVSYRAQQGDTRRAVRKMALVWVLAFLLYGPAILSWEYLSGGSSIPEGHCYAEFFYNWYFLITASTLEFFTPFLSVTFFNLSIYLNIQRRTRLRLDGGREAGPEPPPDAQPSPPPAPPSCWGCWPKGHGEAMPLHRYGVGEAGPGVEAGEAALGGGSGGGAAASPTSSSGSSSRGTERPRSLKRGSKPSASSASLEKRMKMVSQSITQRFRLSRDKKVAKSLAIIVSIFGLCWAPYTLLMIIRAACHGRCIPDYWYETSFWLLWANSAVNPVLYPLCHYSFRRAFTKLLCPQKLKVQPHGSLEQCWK

[6] = Displacement of [3H]LY278584 from 5HT1 receptor in rat frontal cortex; assay type: tissue-based
[7] = biological target: Histamine H3 receptor (Rattus norvegicus) (UniProt Q9QYN8); experiment: Antagonist activity at rat full length histamine H3 receptor assessed as inhibition of (R)-alpha-methylhistamine-induced intracellular calcium release by FLIPR; assay type: functional, cell-based
Histamine H3 receptor [8] = biological target: T1, Histamine H3 receptor; settings: HEK293
[9] = Displacement of [3H]LY278584 from 5HT3 receptor in rat frontal cortex; assay type: tissue-based
Histamine H3 receptor [10] = biological target: T1, Histamine H3 receptor; experiment: Antagonist activity at human full length histamine H3 receptor expressed in HEK293 cells assessed as inhibition of (R)-alpha-methylhistamine-induced intracellular calcium release by FLIPR; assay type: functional, cell-based
[11] = Displacement of [3H]LY278584 from 5HT2 receptor in rat frontal cortex; assay type: tissue-based
Histamine H3 receptor [12] = biological target: T1, Histamine H3 receptor; settings: C6
[13] = biological target: Histamine H3 receptor (Rattus norvegicus) (UniProt Q9QYN8); experiment: Antagonist activity at rat full length histamine H3 receptor expressed in HEK cells assessed as inhibition of forskolin-induced cAMP accumulation by SPA; settings: HEK293
Histamine H3 receptor [14] = biological target: Histamine H3 receptor (Cavia porcellus, UniProt Q9JI35); experiment: Antagonist activity at histamine H3 receptor in guinea pig ileum assessed as inhibition of (R)-alpha-methylhistamine-induced response
Sequence of Histamine H3 receptor (Cavia porcellus, UniProt Q9JI35) (Q9JI35 whole entry): as the sequence (Q9JI35 whole entry) above

T1 sequence (Q9Y5N1 whole entry): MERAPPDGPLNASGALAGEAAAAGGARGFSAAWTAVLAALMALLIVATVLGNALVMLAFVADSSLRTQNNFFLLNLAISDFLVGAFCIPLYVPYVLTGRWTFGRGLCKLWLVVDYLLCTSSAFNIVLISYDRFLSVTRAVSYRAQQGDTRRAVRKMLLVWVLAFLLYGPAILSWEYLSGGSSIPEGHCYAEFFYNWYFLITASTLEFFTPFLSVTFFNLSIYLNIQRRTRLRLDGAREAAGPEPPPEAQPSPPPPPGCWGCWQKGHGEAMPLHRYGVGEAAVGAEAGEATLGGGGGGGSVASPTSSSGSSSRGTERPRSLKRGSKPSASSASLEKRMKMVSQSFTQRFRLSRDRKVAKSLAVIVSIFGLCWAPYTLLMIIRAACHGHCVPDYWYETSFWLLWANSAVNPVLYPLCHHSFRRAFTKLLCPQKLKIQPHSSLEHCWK
T2 sequence (Q9QYN8 whole entry): as the sequence (Q9QYN8 whole entry) above

SMILES	Ki (Histamine H3 receptor [1]) [nM]	Ki (Histamine H3 receptor [2]) [nM]	also measured
C[C@H]1[C@H]2CC[C@H]3[C@@H]4CC=C5C[C@@H](N(C)S(=O)(=O)c6ccc(C#N)cc6)CC[C@]5(C)[C@H]4CC[C@]23CN1C	19	138	
C[C@H]1[C@H]2CC[C@H]3[C@@H]4CC=C5C[C@@H](N(C)S(=O)(=O)N(C)C)CC[C@]5(C)[C@H]4CC[C@]23CN1C	30.9	240	
CC(=O)N[C@@H](Cc1ccccc1)C(=O)N(C)[C@H]1CC[C@@]2(C)C(=CC[C@H]3[C@@H]4CC[C@@H]5[C@H](C)N(C)C[C@@]54CC[C@@H]32)C1	1.15	2.29	
CC(=O)N(C)[C@H]1CC[C@@]2(C)C(=CC[C@H]3[C@@H]4CC[C@@H]5[C@H](C)N(C)C[C@@]54CC[C@@H]32)C1	110	257	
NCCC(=O)NCCc1c[nH]cn1 [CARCININE]			Ki (Histamine H3 receptor [3]): 294 nM
O=C(c1ccc(OCCCc2c[nH]cn2)cc1)C1CC1 [CIPROXIFAN]			pKb [4]: 8.12; pKb [5]: 8.78; pKi [6]: 4.78; pKb [7]: 9.42; pKb (Histamine H3 receptor [8]): 7.07; pKi [9]: 6.52; pKb (Histamine H3 receptor [10]): 6.84; pKi [11]: 4.73; pKb (Histamine H3 receptor [12]): 6.59; pKb [13]: 9.2
C[C@H]1[C@H]2CC[C@H]3[C@@H]4CC=C5C[C@@H](N(C)S(=O)(=O)c6ccccc6)CC[C@]5(C)[C@H]4CC[C@]23CN1C	7.76	61.7	
CN(C)CCCOc1c(Br)cc(CCN(C)C)cc1Br [APLYSAMINE]			IC50 (Histamine H3 receptor [14]): 500 nM
C[C@H]1[C@H]2CC[C@H]3[C@@H]4CC=C5C[C@@H](N(C)C(=O)N(C)C)CC[C@]5(C)[C@H]4CC[C@]23CN1C	50.1	295	
C[C@H]1[C@H]2CC[C@H]3[C@@H]4CC=C5C[C@@H](N(C)C(=O)c6ccccc6)CC[C@]5(C)[C@H]4CC[C@]23CN1C	12.3	38	
C[C@H]1[C@H]2CC[C@H]3[C@@H]4CC=C5C[C@@H](N(C)C(=O)c6ccncc6)CC[C@]5(C)[C@H]4CC[C@]23CN1C	16.2	155	
CC[C@@H](C)[C@@H](N)C(=O)N(C)[C@H]1CC[C@@]2(C)C(=CC[C@H]3[C@@H]4CC[C@@H]5[C@H](C)N(C)C[C@@]54CC[C@@H]32)C1	0.37	2.88	
CC[C@H](C)[C@H](N)C(=O)N(C)[C@H]1CC[C@@]2(C)C(=CC[C@H]3[C@@H]4CC[C@@H]5[C@H](C)N(C)C[C@@]54CC[C@@H]32)C1	0.22	0.49	
